Legend:
Test in all cases: relative viability (nuclei count vs DMSO), 5 days (fraction); higher = more cells survive
201T = test system: 201T
Procedure, shortened: (§1)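 Lung cancer cell lines in 1536-well plates were dosed by pin tool the day after seeding, either with one drug alone or with a fixed anchor-drug dose plus five library-drug doses (not always all listed) in √10 steps. After 5 days, cells were fixed and their nuclei stained in one step (final 0.05% Triton X-100, 1% formaldehyde, 1 ug/ml Hoechst), then counted on 4× images. Relative viability is the nuclei count in treated wells divided by that in vehicle wells. Values are medians of duplicate plates.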

EPLC-272H = test system: EPLC-272H
Procedure, shortened: as §1

H3255 = test system: H3255
Procedure, shortened: as §1

LCLC-103H = test system: LCLC-103H
Procedure, shortened: as §1

LOU-NH91 = test system: LOU-NH91
Procedure, shortened: as §1

NCI-H1355 = test system: NCI-H1355
Procedure, shortened: as §1

NCI-H1651 = test system: NCI-H1651
Procedure, shortened: as §1

NCI-H1666 = test system: NCI-H1666
Procedure, shortened: as §1

NCI-H1734 = test system: NCI-H1734
Procedure, shortened: as §1

NCI-H1792 = test system: NCI-H1792
Procedure, shortened: as §1

NCI-H1793 = test system: NCI-H1793
Procedure, shortened: as §1

NCI-H1915 = test system: NCI-H1915
Procedure, shortened: as §1

NCI-H1944 = test system: NCI-H1944
Procedure, shortened: as §1

NCI-H1975 = test system: NCI-H1975
Procedure, shortened: as §1

NCI-H2342 = test system: NCI-H2342
Procedure, shortened: as §1

NCI-H2405 = test system: NCI-H2405
Procedure, shortened: as §1

NCI-H441 = test system: NCI-H441
Procedure, shortened: as §1

NCI-H647 = test system: NCI-H647
Procedure, shortened: as §1

RERF-LC-KJ = test system: RERF-LC-KJ
Procedure, shortened: as §1

`COCC1(CO)C(=O)C2CCN1CC2` (stereo not given) [PRIMA-1MET] + NC(=O)Nc1cc(-c2cccc(F)c2)sc1C(=O)N[C@H]1CCCNC1 [AZD7762] (partner 0.2 µM) showed a relative viability (201T; first compound 0.2 µM) of 0.484, a relative viability (201T; first compound 0.6325 µM) of 0.578 and a relative viability (201T; first compound 2 µM) of 0.626. It also gave a relative viability (201T; first compound 6.325 µM) of 0.577, a relative viability (201T; first compound 20 µM) of 0.563 and a relative viability (EPLC-272H; first compound 0.2 µM) of 0.236. It also gave a relative viability (EPLC-272H; first compound 0.6325 µM) of 0.123, a relative viability (EPLC-272H; first compound 2 µM) of 0.178 and a relative viability (EPLC-272H; first compound 6.325 µM) of 0.262. The relative viability (EPLC-272H; first compound 20 µM) was 0.147, the relative viability (H3255; first compound 0.2 µM) was 0.945 and the relative viability (H3255; first compound 0.6325 µM) was 0.873. For the same molecule, the relative viability (H3255; first compound 2 µM) was 0.955, the relative viability (H3255; first compound 6.325 µM) was 1.06 and the relative viability (H3255; first compound 20 µM) was 0.775. It also gave a relative viability (LCLC-103H; first compound 0.2 µM) of 0.889, a relative viability (LCLC-103H; first compound 0.6325 µM) of 0.732 and a relative viability (LCLC-103H; first compound 2 µM) of 0.673. It also gave a relative viability (LCLC-103H; first compound 6.325 µM) of 0.768, a relative viability (LCLC-103H; first compound 20 µM) of 0.756 and a relative viability (LOU-NH91; first compound 0.2 µM) of 0.828. It also gave a relative viability (LOU-NH91; first compound 0.6325 µM) of 0.74, a relative viability (LOU-NH91; first compound 2 µM) of 0.658 and a relative viability (LOU-NH91; first compound 6.325 µM) of 0.71. For the same molecule, the relative viability (LOU-NH91; first compound 20 µM) was 0.386, the relative viability (NCI-H1355; first compound 0.2 µM) was 0.887 and the relative viability (NCI-H1355; first compound 0.6325 µM) was 0.61. It also gave a relative viability (NCI-H1355; first compound 2 µM) of 0.702, a relative viability (NCI-H1355; first compound 6.325 µM) of 0.874 and a relative viability (NCI-H1355; first compound 20 µM) of 0.72. It also gave a relative viability (NCI-H1651; first compound 0.2 µM) of 0.442, a relative viability (NCI-H1651; first compound 0.6325 µM) of 0.443 and a relative viability (NCI-H1651; first compound 2 µM) of 0.478. It also gave a relative viability (NCI-H1651; first compound 6.325 µM) of 0.513, a relative viability (NCI-H1651; first compound 20 µM) of 0.592 and a relative viability (NCI-H1666; first compound 0.2 µM) of 0.841. For the same molecule, the relative viability (NCI-H1666; first compound 0.6325 µM) was 0.688, the relative viability (NCI-H1666; first compound 2 µM) was 0.798 and the relative viability (NCI-H1666; first compound 6.325 µM) was 0.817. It also gave a relative viability (NCI-H1666; first compound 20 µM) of 0.728, a relative viability (NCI-H1734; first compound 0.2 µM) of 0.52 and a relative viability (NCI-H1734; first compound 0.6325 µM) of 0.538. It also gave a relative viability (NCI-H1734; first compound 2 µM) of 0.685, a relative viability (NCI-H1734; first compound 6.325 µM) of 0.452 and a relative viability (NCI-H1734; first compound 20 µM) of 0.0452. It also gave a relative viability (NCI-H1792; first compound 0.2 µM) of 0.569, a relative viability (NCI-H1792; first compound 6.325 µM) of 0.907 and a relative viability (NCI-H1792; first compound 20 µM) of 0.429. It also gave a relative viability (NCI-H1793; first compound 0.2 µM) of 0.408, a relative viability (NCI-H1793; first compound 0.6325 µM) of 0.651 and a relative viability (NCI-H1793; first compound 6.325 µM) of 0.685. For the same molecule, the relative viability (NCI-H1793; first compound 20 µM) was 0.382, the relative viability (NCI-H1915; first compound 0.2 µM) was 0.745 and the relative viability (NCI-H1915; first compound 0.6325 µM) was 0.507. It also gave a relative viability (NCI-H1915; first compound 2 µM) of 0.517, a relative viability (NCI-H1915; first compound 6.325 µM) of 0.82 and a relative viability (NCI-H1915; first compound 20 µM) of 0.657. The relative viability (NCI-H1944; first compound 0.2 µM) was 0.661, the relative viability (NCI-H1944; first compound 0.6325 µM) was 0.43 and the relative viability (NCI-H1944; first compound 2 µM) was 0.381. It also gave a relative viability (NCI-H1944; first compound 6.325 µM) of 0.533, a relative viability (NCI-H1944; first compound 20 µM) of 0.511 and a relative viability (NCI-H1975; first compound 0.2 µM) of 0.807. For the same molecule, the relative viability (NCI-H1975; first compound 0.6325 µM) was 0.648, the relative viability (NCI-H1975; first compound 2 µM) was 0.651 and the relative viability (NCI-H1975; first compound 6.325 µM) was 0.811. It also gave a relative viability (NCI-H1975; first compound 20 µM) of 0.181, a relative viability (NCI-H2342; first compound 0.2 µM) of 0.566 and a relative viability (NCI-H2342; first compound 0.6325 µM) of 0.371. For the same molecule, the relative viability (NCI-H2342; first compound 6.325 µM) was 0.531, the relative viability (NCI-H2342; first compound 20 µM) was 0.41 and the relative viability (NCI-H2405; first compound 0.2 µM) was 0.753. For the same molecule, the relative viability (NCI-H2405; first compound 0.6325 µM) was 0.748, the relative viability (NCI-H2405; first compound 6.325 µM) was 0.676 and the relative viability (NCI-H2405; first compound 20 µM) was 0.0739. For the same molecule, the relative viability (NCI-H441; first compound 0.2 µM) was 1.09, the relative viability (NCI-H441; first compound 0.6325 µM) was 1.06 and the relative viability (NCI-H441; first compound 2 µM) was 0.833. It also gave a relative viability (NCI-H441; first compound 6.325 µM) of 1.1, a relative viability (NCI-H441; first compound 20 µM) of 0.731 and a relative viability (NCI-H647; first compound 0.2 µM) of 0.578. For the same molecule, the relative viability (NCI-H647; first compound 0.6325 µM) was 0.434, the relative viability (NCI-H647; first compound 2 µM) was 0.38 and the relative viability (NCI-H647; first compound 6.325 µM) was 0.383. The relative viability (NCI-H647; first compound 20 µM) was 0.137, the relative viability (RERF-LC-KJ; first compound 0.2 µM) was 1.11 and the relative viability (RERF-LC-KJ; first compound 0.6325 µM) was 0.875. The relative viability (RERF-LC-KJ; first compound 2 µM) was 0.928, the relative viability (RERF-LC-KJ; first compound 6.325 µM) was 1.04 and the relative viability (RERF-LC-KJ; first compound 20 µM) was 0.978.
